From patent US20180133337A1, “CALICHEAMICIN CONSTRUCTS AND METHODS OF USE” (priority 2015, published 2018)

Experiments:
[1] = tested on: MES SA cells (uterine sarcoma line); assay: In vitro cell killing by calicheamicin and linker-drug constructs (CellTiter-Glo, 72 hours); type: cell-based; conditions: for IC50: MES SA
Experimental: (§1) 293 T cells were used along with MES SA and MES SA/Dx cells which comprise uterine sarcoma lines purchased from ATCC. The MES SA/Dx cell line was generated from MES SA cells cultured with increasing amounts of doxorubicin resulting in 100-fold resistance to doxorubicin and upregulation of MDR1.
(§2) The cells were cultured in a T75 flask to ˜50-80% confluency and harvested with trypsin into a single cell suspension. Five hundred (500) cells per well were seeded in tissue culture plates in 50 μL/well culture media and incubated at 37° C. for 18-24 hours. Compounds were diluted as 400× final desired concentrations in DMSO. Serial dilutions in DMSO were then diluted in culture media for a final DMSO concentration of 0.25% and 50 μL/well of the final dilution was added to the cells (Vf=100 μL). Upon plating and treatment, cells were returned to the incubator for an additional 72 hours. CellTiter-Glo reagent was prepared per manufacturer's instructions and added at 100 μL/well to the cultures. CellTiter-Glo allows for relative enumeration of metabolically active cells by quantifying intracellular ATP concentrations. After 5 minutes of incubation with CellTiter-Glo at ambient room temperature, 125 μL/well of the Cell Titer Glo/cell lysate solution was transferred into black assay plates, which were then read in a luminometer within 30 minutes.

293 T cells = assay: as above; type: cell-based
Experimental: as §1, §2

[2] = tested on: MES SA/Dx cells (doxorubicin-resistant uterine sarcoma line, MDR1 upregulated); assay: as above; type: cell-based
Experimental: as §1, §2

Cathepsin B = Cathepsin B (Homo sapiens, UniProt P07858); assay: Cathepsin B cleavage assay of dipeptide linker-drug constructs; type: biochemical; conditions: NAC-quenched linker-drug, 2.5, 5 or 10 mol % enzyme, pH 6.0, room temperature, 15-90 min
Experimental: Initially linker drug constructs from Examples 3 and 4 were treated with IM N-acetyl cysteine solution to quench maleimide functionality prior to the cathepsin B treatment. Excess of N-acetyl cysteine is used to activate the Cathepsin B.
More specifically quenched linker-drugs in 1:1 acetonitrile:water solution (20 ul) were diluted with 20 mM HisC1 pH 6.0 to a final acetonitrile content of 10% v/v ([…]). Cathepsin B enzyme was added to result in 2.5 mol %, 5 mol % or 10 mol % enzyme relative to the linker-drug. Reactions were vortexed gently and kept at room temperature. At the time points of 15, 30, 60 and 90 min 3 ul of the reaction mixture were placed into the total recovery vial containing 5 uL Tris pH 9, 2 uL 100 mM […] (DHAA), 15 ul water. The samples were analyzed using Analytical Method B set forth above. Conversion was calculated based on the decrease of the starting material peak area.

[3] = SMALL MOLECULE IVK (10 nM start, 5X dilutions)
[4] = SMALL MOLECULE IVK (10 nM start, 5X dilutions), listed as N acetyl calicheamicin (lot B)
[5] = LINKER DRUG IVK (1000 nM start, 10X dilutions)

Structure (SMILES)	IC50 [1, 3]	IC50 [1, 4]	derived IC50 values, range of activity ([1]; summary of Table 5)	IC50 (293 T cells; [3])	IC50 (293 T cells; [4])	IC50 [2, 3]	IC50 [2, 4]	IC50 [1, 5]	IC50 (293 T cells; [5])	IC50 [2, 5]	cleavage by Cathepsin B (Cathepsin B)	rate of cleavage by Cathepsin B, compared between constructs (Cathepsin B)
CCN(C(C)=O)[C@H]1CO[C@@H](O[C@H]2[C@H](O[C@H]3C#C/C=C\C#C[C@]4(O)CC(=O)C(NC(=O)OC)=C3/C4=C\CSSSC)O[C@H](C)[C@@H](NO[C@H]3C[C@H](O)[C@H](SC(=O)c4c(C)c(I)c(O[C@@H]5O[C@@H](C)[C@H](O)[C@@H](OC)[C@H]5O)c(OC)c4OC)[C@@H](C)O3)[C@@H]2O)C[C@@H]1OC [N acetyl calicheamicin (lot A), N-acetyl calicheamicin γ 1]	0.0308 nM	0.0693 nM	picomolar range	0.0409 nM	0.052 nM	30.6 nM	17.1 nM	–	–	–	–	–
CCN(C(C)=O)[C@H]1CO[C@@H](O[C@H]2[C@H](O[C@H]3C#C/C=C\C#C[C@]4(O)CC(=O)C(NC(=O)OC)=C3/C4=C\CSSC(C)(C)CCC(=O)NCCNC(=O)OCc3ccc(NC(=O)[C@H](CCCNC(N)=O)NC(=O)[C@@H](NC(=O)CCCCCN4C(=O)C=CC4=O)C(C)C)cc3)O[C@H](C)[C@@H](NO[C@H]3C[C@H](O)[C@H](SC(=O)c4c(C)c(I)c(O[C@@H]5O[C@@H](C)[C@H](O)[C@@H](OC)[C@H]5O)c(OC)c4OC)[C@@H](C)O3)[C@H]2O)C[C@@H]1OC [Val-Cit calicheamicin]	–	–	–	–	–	–	–	6.3 nM	46 nM	> 1000 nM	effectively cleaved	cleaved more rapidly than the Val-Ala dipeptidyl construct
CCN(C(C)=O)[C@H]1CO[C@@H](O[C@H]2[C@H](O[C@H]3C#C/C=C\C#C[C@]4(O)CC(=O)C(NC(=O)OC)=C3/C4=C\CSSC(C)(C)CCC(=O)NCCNC(=O)OCc3ccc(NC(=O)[C@H](C)NC(=O)[C@@H](NC(=O)CCCCCN4C(=O)C=CC4=O)C(C)C)cc3)O[C@H](C)[C@@H](NO[C@H]3C[C@H](O)[C@H](SC(=O)c4c(C)c(I)c(O[C@@H]5O[C@@H](C)[C@H](O)[C@@H](OC)[C@H]5O)c(OC)c4OC)[C@@H](C)O3)[C@H]2O)C[C@@H]1OC [Val-Ala calicheamicin]	–	–	–	–	–	–	–	–	–	–	effectively cleaved	–
